Among the test systems are HCT-116; RXF 393; SF-295; HL-60; HT-29; IGROV-1; SK-MEL-2; SK-OV-3; A498; 786-0; HCT-15; SF-268; NCI-H460; KM12; UACC-62; CCRF-CEM; COLO 205; NCI-H522; LOX IMVI; SN12C.
Holding throughout (assay): NCI anticancer screen, dose series, 48 h

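Where inhibition never reached the appropriate level, the endpoint shown equals the highest concentration tested. Otherwise, values were interpolated linearly from a five-concentration, 48-hour dose response in 96-well plates. GI50 is the concentration that inhibits growth by half.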 Calls of active or inactive are those of the source. Cut-off read from the data, not from the text of the source: active = GI50 up to about 1.1 µM and inactive = higher.

Consider `O=S(=O)(O)c1cc(/N=N/c2c(O)ccc3ccccc23)cc2c(S(=O)(=O)O)cccc12`, for which the GI50 in the assay on HCT-116, in the assay on RXF 393, in the assay on SF-295, with HL-60, with HT-29 and in the assay with IGROV-1 was > 100 µM (inactive) throughout. Besides, the GI50 in the assay with SK-MEL-2 was > 100 µM (inactive); in the assay with SK-OV-3, > 100 µM (inactive); with A498, > 100 µM (inactive); in the assay with 786-0, > 100 µM (inactive); with HCT-15, > 100 µM; in the assay on SF-268, > 100 µM (inactive). Also, the GI50 with NCI-H460, with KM12, with UACC-62, in the assay on CCRF-CEM, in the assay with COLO 205 and with NCI-H522 was > 100 µM (inactive) in each case.
As to `COC(=O)CCC(NC(=S)N/N=C(\C)c1nccs1)C(=O)OC` (centres undefined), the GI50 in the assay with HCT-116 was 34.4 µM (inactive); in the assay on RXF 393 it was 42.2 µM (inactive); with SF-295, 87.7 µM (inactive); in the assay with HL-60 it was 10 µM (inactive); with HT-29 it was 73.5 µM (inactive); with IGROV-1, 73.5 µM (inactive). In addition, the GI50 in the assay on SK-MEL-2 is > 100 µM (inactive); with SK-OV-3, > 100 µM (inactive); with A498, > 100 µM (inactive); in the assay with LOX IMVI, 52 µM (inactive); with 786-0, 69.3 µM (inactive); in the assay with HCT-15 it was 46.3 µM. The GI50 with SF-268 is 56.6 µM (inactive); in the assay with NCI-H460, 53.3 µM (inactive); in the assay on KM12, > 100 µM (inactive); with UACC-62 it was 28.1 µM (inactive); with SN12C, > 100 µM (inactive); in the assay on COLO 205 it was 11.3 µM (inactive). The GI50 in the assay on NCI-H522 was 26.4 µM (inactive).
`OC1C2CN3CCN(C2)CC1(c1ccccc1)C3` (centres undefined): the GI50 in the assay on HCT-116, in the assay on RXF 393, in the assay on SF-295, in the assay on HL-60, with HT-29 and with IGROV-1 was > 100 µM (inactive) each time. The GI50 with SK-MEL-2, in the assay with A498, in the assay on LOX IMVI, in the assay on 786-0, with SF-268 and with KM12 was > 100 µM (inactive) in each case. Moreover, the GI50 in the assay on UACC-62, with SN12C, in the assay with COLO 205 and with NCI-H522 was > 100 µM (inactive) throughout.
Take `CCOC(=O)c1c(-c2ccc(OC)cc2)c(C#N)c(=S)n(C2OC(COC(C)=O)C(OC(C)=O)C(OC(C)=O)C2OC(C)=O)c1C` (centres undefined): the GI50 was > 100 µM (inactive) in the assay with HCT-116; > 100 µM (inactive) with RXF 393; > 100 µM (inactive) with SF-295; 75.7 µM (inactive) in the assay on HL-60; > 100 µM (inactive) with HT-29; > 100 µM (inactive) in the assay on IGROV-1. Moreover, the GI50 in the assay on SK-OV-3 was > 100 µM (inactive); in the assay with A498, > 100 µM (inactive); in the assay on LOX IMVI, > 100 µM (inactive); in the assay on 786-0 it was > 100 µM (inactive); in the assay on HCT-15 it was > 100 µM; with SF-268, > 100 µM (inactive). The GI50 with NCI-H460 is > 100 µM (inactive); with KM12, > 100 µM (inactive); in the assay with UACC-62, 44.5 µM (inactive); with CCRF-CEM, 61.9 µM (inactive); in the assay with SN12C, > 100 µM (inactive); in the assay with COLO 205, > 100 µM (inactive). Moreover, the GI50 in the assay on NCI-H522 was 70.8 µM (inactive).
As to `COc1cc(OC)cc(Oc2nc3ccc(C(F)(F)F)cc3nc2-c2ccccc2)c1`, the GI50 in the assay on HCT-116 is > 100 µM (inactive); with RXF 393, > 100 µM (inactive); in the assay on SF-295 it was > 100 µM (inactive); with HL-60, > 100 µM (inactive); in the assay with HT-29, 60 µM (inactive); with IGROV-1, > 100 µM (inactive). Further, the GI50 in the assay with SK-OV-3 was > 100 µM (inactive); in the assay on A498, > 100 µM (inactive); in the assay on LOX IMVI it was > 100 µM (inactive); in the assay with 786-0 it was > 100 µM (inactive); in the assay on HCT-15, > 100 µM; in the assay with SF-268, > 100 µM (inactive). The GI50 in the assay with NCI-H460, with KM12, in the assay on UACC-62, in the assay on CCRF-CEM, in the assay with COLO 205 and in the assay on NCI-H522 was > 100 µM (inactive) in each case.
On to `CC(CN1CCN(CC(C)Nc2ccnc3cc(Cl)ccc23)CC1)Nc1ccnc2cc(Cl)ccc12` (centres undefined), for which the GI50 in the assay on HCT-116 is 13.4 µM (inactive); with RXF 393, 13.2 µM (inactive); with SF-295, 19.6 µM (inactive); in the assay on HL-60, 8.93 µM (inactive); in the assay on HT-29 it was 6.93 µM (inactive); with SK-OV-3, 34 µM (inactive). The GI50 is 18 µM (inactive) in the assay with A498; 3.76 µM (inactive) in the assay with LOX IMVI; 17.8 µM (inactive) with 786-0; 15.7 µM in the assay on HCT-15; 2.81 µM (inactive) in the assay with SF-268; 14.7 µM (inactive) in the assay on NCI-H460. Moreover, the GI50 in the assay on KM12 was 13.4 µM (inactive); in the assay with UACC-62, 17.9 µM (inactive); with CCRF-CEM, 3.69 µM (inactive); in the assay on SN12C, 22.4 µM (inactive); in the assay on COLO 205, 14.4 µM (inactive); in the assay with NCI-H522, 20.7 µM (inactive).
With `CCCNC(=O)OCc1c(COC(=O)NCCC)c(-c2ccc(Cl)c(Cl)c2)n2c1CCC2`, the GI50 in the assay with HCT-116 was 5.09 µM (inactive); in the assay with RXF 393, 2.35 µM (inactive); in the assay on SF-295, 2.95 µM (inactive); in the assay on HL-60 it was 2.64 µM (inactive); with HT-29 it was 4.12 µM (inactive); with IGROV-1, 1.05 µM (active). Also, the GI50 with SK-OV-3 was 2.81 µM (inactive); in the assay on A498, 1.26 µM (inactive); in the assay on LOX IMVI, 3.78 µM (inactive); in the assay on 786-0 it was 2.82 µM (inactive); in the assay with HCT-15 it was 4.18 µM; with SF-268, 4.33 µM (inactive). The GI50 in the assay on NCI-H460 was 3.57 µM (inactive); in the assay on KM12, 10.7 µM (inactive); in the assay with UACC-62, 2.8 µM (inactive); in the assay on CCRF-CEM, 1.98 µM (inactive); with SN12C it was 3.11 µM (inactive); with COLO 205, 3.64 µM (inactive). Also, the GI50 with NCI-H522 was 1.16 µM (inactive).
On to `O=C(Cc1nc2ccccc2s1)C(=O)Nc1cccc(C(F)(F)F)c1`, for which the GI50 in the assay with HCT-116, in the assay on RXF 393, in the assay with SF-295, with HL-60, in the assay with HT-29 and in the assay on IGROV-1 was > 100 µM (inactive) throughout. Moreover, the GI50 is > 100 µM (inactive) in the assay on SK-MEL-2; > 100 µM (inactive) in the assay on SK-OV-3; > 100 µM (inactive) in the assay on A498; > 100 µM (inactive) in the assay with 786-0; > 100 µM with HCT-15; > 100 µM (inactive) in the assay with SF-268. The GI50 in the assay on NCI-H460, in the assay with KM12, with UACC-62, with CCRF-CEM, in the assay on SN12C and with COLO 205 was > 100 µM (inactive) throughout. Besides, in the assay on NCI-H522, the GI50 was > 100 µM (inactive).
For `O=C(CC1C(=O)Nc2ccccc2[S+]1[O-])Nc1ccccc1` (centres undefined), the GI50 in the assay on HCT-116 is > 100 µM (inactive); with RXF 393, 19.8 µM (inactive); in the assay with SF-295, > 100 µM (inactive); with HL-60, > 100 µM (inactive); in the assay on HT-29 it was > 100 µM (inactive); in the assay on IGROV-1 it was > 100 µM (inactive). In addition, the GI50 in the assay on SK-MEL-2 is > 100 µM (inactive); in the assay on SK-OV-3, 26.9 µM (inactive); with A498 it was > 100 µM (inactive); in the assay on 786-0 it was 40.8 µM (inactive); with HCT-15, > 100 µM; in the assay with SF-268, > 100 µM (inactive). Besides, the GI50 in the assay with NCI-H460, with KM12, in the assay with UACC-62, in the assay on CCRF-CEM, in the assay with SN12C and in the assay with COLO 205 was > 100 µM (inactive) each time. Further, the GI50 with NCI-H522 is > 100 µM (inactive).
With `CC(=O)O[C@H]1CCC2[C@@H]3CCC4=C(O)C(=O)C(C#N)C[C@]4(C)C3CC[C@@]21C` (some centres undefined), the GI50 is 29.5 µM (inactive) in the assay on HCT-116; 24.9 µM (inactive) in the assay with RXF 393; 45.9 µM (inactive) with SF-295; 20 µM (inactive) in the assay on HL-60; 42.5 µM (inactive) in the assay on HT-29; 26.2 µM (inactive) with IGROV-1. The GI50 was 35 µM (inactive) in the assay with SK-MEL-2; 29.4 µM (inactive) with SK-OV-3; 0.361 µM (active) in the assay on A498; 18.9 µM (inactive) in the assay on LOX IMVI; 24.4 µM (inactive) in the assay with 786-0; 30 µM with HCT-15. In addition, the GI50 is 24.4 µM (inactive) in the assay with SF-268; 31.6 µM (inactive) in the assay with NCI-H460; 35.7 µM (inactive) in the assay with KM12; 15.5 µM (inactive) in the assay with UACC-62; 30.1 µM (inactive) in the assay on CCRF-CEM; 33.5 µM (inactive) in the assay with SN12C. In addition, the GI50 in the assay on COLO 205 was 28.4 µM (inactive).

For the origin of these results see ChEMBL document CHEMBL1201862, “PubChem BioAssay data set” (2004).
